Here are results for one sequence from article PMC7440915, “Discovery of surrogate agonists for visceral fat Treg cells that modulate metabolic indices in vivo” (eLife, 2020).

The test relates to vTreg53 Treg cells and VAT immunocytes. Put plainly: Immunocyte composition of spleen and VAT in HFD-fed mice after vTreg53 Treg transfer and immunization. It counts as in vivo, mouse. The source says:
Figure 6. Immunization with Fat1562 expands transferred vTreg53 Treg cells and suppresses HFD-induced VAT inflammation. (A) Scheme of the transfer and immunization protocol. (B) Frequencies of CD45.2^+ cells in Treg cells (n ≥ 7). (C) Frequencies of clonotype^+ cells in transferred CD45.2^+ Treg cells (n ≥ 7). (D) Number of clonotype^+ CD45.2^+ Treg cells in the spleen (n ≥ 7). (E) Number of clonotype^+ CD45.2^+ Treg cells in the VAT (n ≥ 7). (F) Number of total Treg cells in the spleen (n ≥ 7). (G) Number of total Treg cells in VAT (n ≥ 7). (H) Numbers of eosinophils and CD11c^hi inflammatory macrophages in VAT (n ≥ 7). Data are mean ± SD. Data shown are representative of at least two independent experiments. Figure 6—figure supplement 1. Gating strategy. Gating strategy used for detection of VAT Treg cells (top) and, eosinophils or macrophage cells (bottom) by flow cytometry. [drawing 6] TEXT PRINTED IN THE PICTURE: (B) adjuvant: Spl: 0.3 (Gated on Tregs); VAT: 4 (Gated on Tregs) | (B) adjuvant/ Fat1562: Spl: 1.2 (Gated on Tregs); VAT: 53.4 (Gated on Tregs) | (C) adjuvant: Spl: 62.3 (Gated on CD45.2^+ Tregs); VAT: 94.1 (Gated on CD45.2^+ Tregs) | (C) adjuvant/ Fat1562: Spl: 94.1 (Gated on CD45.2^+ Tregs); VAT: 97.8 (Gated on CD45.2^+ Tregs) | (H) adjuvant: 9.3 (Gated on CD45.1^+); 46.3 (Gated on CD45.1^+); 41.3 (Gated on F4/80^+) | (H) adjuvant/ Fat1562: 14.5 (Gated on CD45.1^+); 39.6 (Gated on CD45.1^+); 22.6 (Gated on F4/80^+) DOUBTS OF THE COPYIST ABOUT THIS PICTURE: All values are gate numbers printed inside flow cytometry plots; no measure or unit is printed beside them, so it is uncertain whether they count as results for a substance / 'adjuvant' is the control treatment and 'adjuvant/Fat1562' the test treatment; these are treatment groups, not single compounds / Panel B, adjuvant, VAT: printed as 4, a decimal may be hidden
Mice were asphyxiated with CO2. Epididymal VAT was excised, minced and digested for 20 min with 1.5 mg/ml collagenase type II (Sigma) in Dulbecco’s Modified Eagle’s Medium (DMEM) supplemented with 2% fetal calf serum (FCS) in a 37°C water bath with shaking. The digested materials were filtered through a sieve and then a 40 µm nylon cell strainer. The stromal vascular fraction was collected after centrifugation at 450 g for 10 min. For surface markers, cells were stained with anti-CD45.1 (A20), -CD45.2 (104), -CD3 (17A2), -CD4 (GK1.5), -TCR Vα2 (B20.1), -CD44 (IM7), -CD62L (MEL-14), -CD45 (30-F11), -CD11b (M1/70), -CD11c (N418), -F4/80 (BM8) mAbs (all from Biolegend), and anti-TCR Vβ4 (KT4), anti-Siglec-F (E50-2440) mAbs (both from BD Biosciences), as detailed in experiment descriptions. Foxp3 staining was performed using the Foxp3/Transcription Factor Staining Buffer Set and anti-Foxp3 (FJK-16s) mAb (both from eBioscience). Cells were acquired with an LSRII flow cytometer (BD Biosciences), an Accuri (BD Biosciences) or Cytoflex (Beckman Coulter). Propidium Iodide was used to distinguish live from dead cells. Assays were performed in biological duplicates or triplicates as described in the figure legends. Data were analyzed using FlowJo.
To assess early Treg proliferation following peptide stimulation in vivo, 0.4 million Treg cells were sorted from pooled Spl and LNs of 6-8wk-old male CD45.2^+ Tg^+ Foxp3-GFP^KI/y mice by Moflo, labeled by the CellTrace Violet dye (ThermoFisher Scientific), and were i.v.-injected into 6-8wk old male B6.CD45.1^+ mice. The next day, the recipient mice were injected with 200 µg peptides emulsified in CFA (CFA/peptides) s.c. on the lower back. Proliferation of clonotype^+ Tregs in the spleen was determined three days later. To examine the expansion of VAT-Treg cells by peptide immunization, we sorted 0.4 million Treg cells from pooled Spl/LNs of 6-8wk-old male CD45.2^+ Tg^+ Foxp3-GFP^KI/y mice and transferred them i.v. into 6-8wk old male B6.CD45.1^+ mice. […]

Where no end group is shown, it is not given here.

For the sequence TMYKNPRPMAATG [Fat1562], the “VAT inflammation” value is recorded as “reduced VAT inflammation” and the “expansion of adoptively transferred vTreg53 cells” value is on record as “significant expansion”. Also, under “VAT, n ≥ 7”, the “clonotype^+ TCR-tg Treg cells, share of entire VAT-Treg pool” value is reported as “almost half”; the “frequency of CD11c^hi pro-inflammatory macrophages in VAT” value is “reducing the frequency of CD11c^hi pro-inflammatory macrophages”; the “proportion of eosinophils in VAT” value was “significantly increased the proportion of eosinophils”; the “total number of VAT Treg cells” value was “significantly elevated”. For the same sequence, where the note is “spleen, immunization with Fat1562”, the “donor-derived cells, share of total Treg pool in spleen” value was “less than 2%”. Moreover, the “total number of splenic Treg cells” value (spleen, n ≥ 7) is listed as “did not show a significant increase”.
